This note sets out measurements from patent US8927550B2, “Heterocyclic compounds as CCR1 receptor antagonists” (Boehringer Ingelheim International GmbH, priority 2009, dated 2015).

In assay [1] the target is T1, CCR1 (Homo sapiens, UniProt P32246).
T1 construct: host or cells: Non-adherent cells
T1 sequence (P32246 1-355): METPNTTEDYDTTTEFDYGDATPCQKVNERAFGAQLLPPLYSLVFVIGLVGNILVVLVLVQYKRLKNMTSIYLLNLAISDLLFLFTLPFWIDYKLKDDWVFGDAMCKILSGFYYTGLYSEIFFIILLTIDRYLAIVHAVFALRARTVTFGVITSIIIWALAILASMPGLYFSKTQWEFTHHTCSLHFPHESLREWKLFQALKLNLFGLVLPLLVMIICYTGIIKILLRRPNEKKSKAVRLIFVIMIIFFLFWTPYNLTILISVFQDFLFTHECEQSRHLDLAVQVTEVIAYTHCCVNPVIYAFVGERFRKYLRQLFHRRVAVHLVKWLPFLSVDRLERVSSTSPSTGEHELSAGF
The assay is described as follows: Calcium flux in CCR1 transfected cells, Method A (Fluo-4 NW dye, FLIPR TETRA), MIP-1 alpha at EC80. In kind it is cell-based. The note with it: cells stably expressing recombinant CCR1 and G-alpha-16, 1 hour at room temperature. The procedure:
(§1) Compounds are assessed for the ability to block the interaction of CCR1 and MIP-1α in a functional cellular assay measuring calcium flux in CCR1 transfected cells.
Method A: Non-adherent cells purchased from Chemicon Corporation (HTS005C), stably expressing recombinant CCR1 and G-alpha-16 are grown in RPMI 1640 medium (Mediatech 10-080-CM) supplemented with 10% heat-inactivated FBS, 0.4 mg/mL Geneticin and penicillin/streptomycin. On the day of the assay, the cells are transferred to a beaker and dye-loaded in bulk using a Fluo-4 NW Calcium Assay Kit with probenecid (Invitrogen F36205) at 0.8E6 cells/mL for 1 hour at room temperature. After 1 hour, they are seeded in a 384-well tissue culture-treated plate at a density of 20,000 cells/well. Appropriately diluted test compound is added to the well to achieve a top concentration of 3,000 nM (diluted 4-fold with 10 doses total). The final concentration of DMSO is 1%. The buffer is HBSS (Invitrogen 14025) with 20 mM HEPES at pH 7.4. The cells are allowed to incubate 1 hour in the dark at room temperature. The plates are transferred to the FLIPR TETRA where MIP-1 alpha in 1% BSA is added at the EC80 final concentration. Wells+/−MIP-1 alpha containing diluted DMSO instead of compound serve as the controls. Intracellular calcium flux is recorded on the FLIPR TETRA, using excitation at 470/495 nm and emission at 515/575 nm. Data are analyzed using Activity Base software.
(A change in cytosolic calcium serves as a functional read-out for many receptors and channels.)

Assay [2] concerns the target T1, CCR1. The experiment in a line: Calcium flux in CCR1 transfected cells, Method B (Calcium 4 dye, HAMAMATSU FDSS6000), MIP-1alpha at EC80. The note with it: cells stably expressing recombinant CCR1 and G-alpha-16, 30 minutes at 37 C then 30 minutes at room temperature. In kind it is cell-based. The procedure:
as §1
Method B: Non-adherent cells purchased from Chemicon Corporation (HTS005C), stably expressing recombinant CCR1 and G-alpha-16 are grown in RPMI 1640 medium (Mediatech 10-080-CM) supplemented with 10% FBS, 0.4 mg/mL Geneticin and penicillin/streptomycin. On the day of the assay, the cells are loaded with Calcium 4 dye (Molecular Devices R7448) with Probenecid (Invitrogen P346400) at 8E5 cells/mL for 1 hour at room temperature. After 1 hour, they are seeded in a 384-well tissue culture-treated plate at a density of 20,000 cells/well. Appropriately diluted test compound is added to the well to achieve a top concentration of 3,000 nM (diluted 4-fold with 10 doses total). The final concentration of DMSO is 1%. The buffer is HBSS (Invitrogen 14025) with 20 mM HEPES at pH 7.4. The cells incubate 30 minutes at 37 C and then 30 minutes at room temperature. The plates are transferred to the HAMAMATSU FDSS6000 where MIP-1alpha in 1% BSA is added at the EC80 final concentration. All plates must be read within 4 hours of the start of dye-loading. Wells+/−MIP-1alpha containing diluted DMSO instead of compound serve as the controls. Data are analyzed using Activity Base software.

Take `CS(=O)(=O)c1ccc(CNC(=O)c2cccn3c(-c4ccc(F)cc4)ncc23)cn1` [3-(4-Fluorophenyl)-imidazo[1,5-a]pyridine-8-carboxylic acid (6-methanesulfonyl-pyridin-3-ylmethyl)-amide]: the IC50 at CCR1 [1] was found to be 568 nM.

In the case of `CS(=O)(=O)c1cccc(CNC(=O)c2cccn3c(-c4ccc(F)cc4)ncc23)c1` [3-(4-Fluorophenyl)-imidazo[1,5-a]pyridine-8-carboxylic acid 3-methanesulfonyl-benzylamide], on CCR1 [1], the IC50 was determined as 305 nM. Still for that read-out and setting: with `CS(=O)(=O)c1cc(CNC(=O)c2cccn3c(-c4ccc(F)cc4)ncc23)ccn1` [3-(4-Fluorophenyl)-imidazo[1,5-a]pyridine-8-carboxylic acid (2-methanesulfonyl-pyridin-4-ylmethyl)-amide] the figure was 285 nM. Same read-out and setting: the same measure for `CCCC(NC(=O)c1cccn2c(-c3ccc(F)cc3)ncc12)c1ccc(S(C)(=O)=O)nc1` (stereo not shown) [3-(4-Fluorophenyl)-imidazo[1,5-a]pyridine-8-carboxylic acid [1-(6-methanesulfonyl-pyridin-3-yl)-butyl]-amide]: 7 nM; for `O=C(NCc1cccc(C(F)(F)F)c1)c1cccn2c(-c3ccc(Cl)c(Cl)c3)ncc12` [3-(3,4-Dichlorophenyl)-imidazo[1,5-a]pyridine-8-carboxylic acid 3-trifluoromethyl-benzylamide]: 810 nM; for `O=C(NCc1ccnc(Br)c1)c1cccn2c(-c3ccc(F)cc3)ncc12` [3-(4-Fluorophenyl)-imidazo[1,5-a]pyridine-8-carboxylic acid (2-bromopyridin-4-ylmethyl)-amide]: 11 nM. On the same count and under the same terms, with `O=C(NCc1ccc(Br)nc1)c1cccn2c(-c3ccc(F)cc3)ncc12` [3-(4-Fluorophenyl)-imidazo[1,5-a]pyridine-8-carboxylic acid (6-bromopyridin-3-ylmethyl)-amide] the figure was 428 nM; with `O=C(NCc1cccc(C(F)(F)F)c1)c1cccn2c(-c3ccc(F)cc3)ncc12` [3-(4-Fluorophenyl)-imidazo[1,5-a]pyridine-8-carboxylic acid 3-trifluoromethyl-benzylamide], 18 nM. As for `CS(=O)(=O)c1cc(C2(NC(=O)c3nccn4c(-c5ccc(F)cc5)ncc34)CC2)ccn1` [3-(4-Fluorophenyl)-imidazo[1,5-a]pyrazine-8-carboxylic acid [1-(2-methanesulfonyl-pyridin-4-yl)-cyclopropyl]-amide], on CCR1 [2], the IC50 worked out at 410 nM.

On to `CC[C@H](NC(=O)c1cccn2c(-c3ccc(F)cc3)ncc12)c1ccnc(S(C)(=O)=O)c1` [3-(4-Fluorophenyl)-imidazo[1,5-a]pyridine-8-carboxylic acid [(S)-1-(2-methanesulfonyl-pyridin-4-yl)-propyl]-amide], for which the IC50 on CCR1 [2] is 2 nM.

What is called IC50 is the concentration at which inhibition is half-maximal.
